Measurements as given in patent EP4682144A1, “SOLID FORM OF PYRROLIDONE DERIVATIVE AS GLUCOKINASE ACTIVATOR” (Hua Medicine (Shanghai) Ltd., priority 2023, dated 2024).

Assays:
Type in all cases: physicochemical
[1] = Dissolution stability in different pH and biologically relevant media (XRPD before and after); details: pH 1.0, 1.2, 3.0, 4.5, 5.0, 6.8, 7.0, 7.4, 9.0, FaSSGF (pH 1.6), FaSSIF (pH 6.5), FeSSIF (pH 5.0)
[2] = Forced degradation stability test (heat, humidity and heat, light)
Description: Crystal form A of the free state was placed under the following different conditions for the forced degradation stability test: • About 10 mg of the sample powder was weighed into a vial and placed under the conditions of 50 °C, 80°C, and 40 °C/75%RH (unsealed) for 1 day, 2 weeks, and 4 weeks, respectively. And then, the thermal stability was evaluated. • About 10 mg of the sample powder was weighed and placed in a transparent vial, an amber vial, and a transparent vial sealed with aluminum foil, respectively. Those vials were placed in a light box for 10 days, with a total illumination of 1.2×10^6 Lux·hr and a near-UV energy not less than 200w·hr/m^2, for photostability evaluation.
The samples were taken at each time point for HPLC and XRPD analysis to evaluate the chemical and physical stability.

[3] = High-temperature stability test (60°C, HPLC)
From the text: (§1) The resulting sample was sampled at day 6, day 14 and day 34 for HPLC analysis.

[4] = Photostability test (direct sunlight, HPLC)
From the text: The resulting sample was sampled at day 4 and day 15 for HPLC analysis.

[5] = Dynamic vapour sorption (DVS) test
Description: A certain amount of powder was taken and put into a sample pan, and hygroscopicity of the sample was evaluated with DVS according to the following instrument method:

[6] = Preliminary solubility test in solvents at room temperature; details: listed as crystal form A of the free state
Description: Table 10 Solubility range of the starting material sample at room temperature
The solubility range in the corresponding solvent was calculated based on the mass of the sample and the volume of the added solvent, as shown in Table 28. The data were used as a base to guide the selection of solvent in screening tests. Table 28 Preliminary solubility of crystal form A of the free state at room temperature
The solubility range in the corresponding solvent was calculated based on the mass of the sample and the volume of the added solvent, as shown in Table 35. The data were used as a base to guide the selection of solvent in the screening tests.

[7] = High-humidity stability test (90% RH, HPLC)
From the text: as §1

Structure (SMILES): CC(C)C[C@@H](C(=O)Nc1ccn(C[C@@H](O)COC(=O)c2cccnc2)n1)N1CC(Oc2ccccc2Cl)=CC1=O [Free state crystal form A, (R)-3-(3-((S)-2-(4-(2-chlorophenoxy)-2-oxo-2,5-dihydro-1H-pyrrol-1-yl)-4-methylpentanamido)-1H-pyrazol-1-yl)-2-hydroxypropyl nicotinate]
- crystal form before and after solubility test (XRPD) [1]: does not change
- Purity, % ([2]; 40°C/75%RH (unsealed), 2 weeks, HPLC): 99.15%
- Purity, % ([2]; 40°C/75%RH (unsealed), 4 weeks, HPLC): 99.15%
- Purity, % ([2]; 40°C/75%RH (unsealed), 24 hours, HPLC): 99.09%
- Purity, % ([2]; 50°C, 2 weeks, HPLC): 99.10%
- Purity, % ([2]; 50°C, 4 weeks, HPLC): 99.11%
- high-temperature and humidity-thermal stability ([2]; 50 °C, 80°C, 40 °C/75%RH (unsealed)): excellent
- crystalline form under forced degradation test conditions (XRPD) ([2]; 50 °C, 80°C, 40 °C/75%RH for 1 day, 2 weeks, 4 weeks, light box 10 days): does not change
- Purity, % ([2]; 50°C, 24 hours, HPLC): 99.08%
- Purity, % ([2]; 80°C, 2 weeks, HPLC): 99.12%
- Purity, % ([2]; 80°C, 4 weeks, HPLC): 99.14%
- Purity, % ([2]; 80°C, 24 hours, HPLC): 99.12%
- Purity, % ([2]; Light-amber vial, 10 days, light box, […]10^6 Lux·hr): 99.17%
- Purity, % ([2]; Light-transparent vial sealed with aluminum foil, 10 days, light box, […]10^6 Lux·hr): 99.17%
- Purity, % ([2]; Light-transparent vial, 10 days, light box, […]10^6 Lux·hr): 99.10%
- Purity, % ([2]; Starting, 0h, HPLC): 99.10%
- effect of light on the stability ([2]; light box 10 days, […]10^6 Lux·hr): no effect
- Purity (Area%) ([3]; 0h): 98.17 Area%
- stability at high temperature ([3]; 60°C for 14 days): still stable
- Purity (Area%) ([3]; 60°C, Day 6, without cover): 99.03 Area%
- Purity (Area%) ([3]; 60°C, Day 14, without cover): 99.11 Area%
- Purity (Area%) ([4]; 0 hour): 98.17 Area%
- Purity (Area%) ([4]; Photostability Day 4, direct sunlight): 99.07 Area%
- Purity (Area%) ([4]; Photostability Day 15, direct sunlight): 99.10 Area%
- stability under sunlight ([4]; sunlight for 15 days): still stable
- Water sorption capacity at 80%RH, % ([5]; DVS, 25 °C, 80%RH): 0.3556%
- Water sorption capacity at 90%RH, % ([5]; DVS, 25 °C, 90%RH): 0.4782%
- Water sorption capacity at 95%RH, % ([5]; DVS, 25 °C, 95%RH): 0.6525%
- moisture-induced weight gain ([5]; relative humidity of 95%): less than 0.7%
- moisture-induced weight gain ([5]; relative humidity of less than or equal to 90%, listed as crystal form A of the free state): less than 0.5%
- Solubility (mg/mL) ([6]; 1,4-Dioxane, room temperature): S>40.0 mg/mL
- Solubility (mg/mL) ([6]; Acetone, room temperature): S>40.0 mg/mL
- Solubility (mg/mL) ([6]; CHCl3, room temperature): S>40.0 mg/mL
- Solubility (mg/mL) ([6]; DCM, room temperature): S>40.0 mg/mL
- Solubility (mg/mL) ([6]; DMAc, room temperature): S>40.0 mg/mL
- Solubility (mg/mL) ([6]; DMSO, room temperature): S>42.0 mg/mL
- Solubility (mg/mL) ([6]; H2O, room temperature): S<1.0 mg/mL
- Solubility (mg/mL) ([6]; MTBE, room temperature): S<1.0 mg/mL
- Solubility (mg/mL) ([6]; MeOH, room temperature (25±3 °C)): S>42.0 mg/mL
- Solubility (mg/mL) ([6]; NMP, room temperature): S>40.0 mg/mL
- Solubility (mg/mL) ([6]; THF, room temperature): S>40.0 mg/mL
- Solubility (mg/mL) ([6]; Toluene, room temperature): S<1.0 mg/mL
- Solubility (mg/mL) ([6]; n-Heptane, room temperature): S<1.1 mg/mL
- Purity (Area%) ([7]; 0 hour): 98.17 Area%
- stability at high humidity ([7]; 90% relative humidity for 14 days): still stable
- Purity (Area%) ([7]; 90%RH, Day 6, without cover): 98.99 Area%
- Purity (Area%) ([7]; 90%RH, Day 14, without cover): 99.09 Area%
